Data reported in patent US20100266618A1, “COMPOSITIONS AND METHODS FOR AUGMENTING ACTIVITY OF ONCOLYTIC VIRUSES” (priority 2009, published 2010).
Where two headings read alike, the source gives them in different places.

What was measured:
U373 cells = experiment: In vitro cytotoxicity assays with small molecules followed by Maraba virus infection; conditions: for enhancement of viral oncolysis (cell viability): viability 48 h later
[1] = system: NCI-H226 (non-small cell lung carcinoma) cells; experiment: Genome-wide synthetic lethal RNAi screen with Maraba virus infection, resazurin cell viability; conditions: synthetic lethal hits, siRNA against the gene plus Maraba virus
[2] = system: U373 (glioblastoma) cells; assay type: cell-based, human
[3] = system: OVCAR-8 (ovarian carcinoma) cells; assay type: cell-based, human
[4] = synthetic lethal hits, siRNA against the gene plus Maraba virus
[5] = siRNA against the named gene plus Maraba virus, synthetic lethal hit list

Compound: COc1cc(-c2cccc(C(N)=O)c2)cc(C=O)c1O [Compound 2, 3′-formyl-4′-hydroxy-5′-methoxy-[1,1′-biphenyl]-3-carboxamide]
- lowest, maximally effective dose in cell culture experiments (U373 cells): 20 µM
- combination index (CI) with Maraba virus (U373 cells; U373, across a range of doses and MOIs): < 1.0
- enhancement of viral oncolysis (cell viability) (U373 cells; U373, drug 4 h prior to Maraba virus infection): but not 4 hours
- enhancement of viral oncolysis (cell viability) (U373 cells; U373, drug 48 h prior to Maraba virus infection): greatly enhanced viral oncolysis

Compound: tunicamycin [reference compound]
- virus-mediated killing after chemically induced ER preload (U373 cells; pulse 48 hours before virus infection (5 ug/mL 24 h, 24 h washout)): enhance virus-mediated killing

Compound: BMP4
- COMPOSITE MAD SCORE NCIH226 [1]: −2.642
- COMPOSITE MAD SCORE U373 [2, 4]: −2.038
- COMPOSITE MAD SCORE OVCAR8 [3, 4]: −2.516

Compound: NODAL
- COMPOSITE MAD SCORE U373 [2, 5]: −2.315
- COMPOSITE MAD SCORE OVCAR8 [3, 5]: −4.721
